Test results reported in PubChem BioAssay (NCI).
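Cells were grown in 96-well plates and exposed to each compound for 48 hours at five concentrations; endpoints were interpolated linearly between bracketing concentrations, or set to the highest concentration if not reached. TGI marks complete inhibition of growth.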

How the values were obtained:
Assay in all cases: growth of human tumour cells (NCI), 48 h
[1] = tested on: 786-0 renal
[2] = tested on: A498 renal
[3] = tested on: A549 NSCLC
[4] = tested on: ACHN renal
[5] = tested on: BT-549 breast
[6] = tested on: CAKI-1 renal
[7] = tested on: CCRF-CEM leukemia
[8] = tested on: COLO 205 colon
[9] = tested on: DU-145 prostate
[10] = tested on: EKVX NSCLC
[11] = tested on: HCC-2998 colon
[12] = tested on: HCT-116 colon
[13] = tested on: HCT-15 colon
[14] = tested on: HOP-62 NSCLC
[15] = tested on: HOP-92 NSCLC
[16] = tested on: HS 578T breast
[17] = tested on: HT29 colon
[18] = tested on: IGROV1 ovarian
[19] = tested on: K-562 leukemia
[20] = tested on: KM12 colon
[21] = tested on: LOX IMVI melanoma
[22] = tested on: M14 melanoma
[23] = tested on: MALME-3M melanoma
[24] = tested on: MCF7 breast
[25] = tested on: MDA-MB-231 breast
[26] = tested on: MDA-MB-435
[27] = tested on: MOLT-4 leukemia
[28] = tested on: NCI-H226 lung
[29] = tested on: NCI-H23 lung
[30] = tested on: NCI-H460 lung
[31] = tested on: NCI-H522 lung
[32] = tested on: NCI/ADR-RES ovarian
[33] = tested on: OVCAR-3 ovarian
[34] = tested on: OVCAR-4 ovarian
[35] = tested on: OVCAR-5 ovarian
[36] = tested on: OVCAR-8 ovarian
[37] = tested on: PC-3 prostate
[38] = tested on: RPMI-8226 leukemia
[39] = tested on: RXF 393 renal
[40] = tested on: SF-268 CNS
[41] = tested on: SF-295 CNS
[42] = tested on: SF-539 CNS
[43] = tested on: SK-MEL-2 melanoma
[44] = tested on: SK-MEL-28 melanoma
[45] = tested on: SK-MEL-5 melanoma
[46] = tested on: SK-OV-3 ovarian
[47] = tested on: SN12C renal
[48] = tested on: SNB-19 CNS
[49] = tested on: SNB-75 CNS
[50] = tested on: SR leukemia
[51] = tested on: SW-620 colon
[52] = tested on: T-47D breast
[53] = tested on: TK-10 renal
[54] = tested on: U251 CNS
[55] = tested on: UACC-257 melanoma
[56] = tested on: UACC-62 melanoma
[57] = tested on: UO-31 renal
[58] = tested on: HL-60(TB) leukemia

Work on `O=C(/C=C/c1csc(-c2ccccc2)n1)NCc1ccc(C(=O)NCc2ccccc2)cc1` yielded a TGI [1] of over 100 µM, a TGI [2] of over 100 µM and a TGI [3] of over 100 µM. The TGI [4] was over 100 µM, the TGI [5] was over 100 µM and the TGI [6] was over 100 µM. It also gave a TGI [7] of over 100 µM, a TGI [8] of over 100 µM and a TGI [9] of over 100 µM. The TGI [10] was over 100 µM, the TGI [11] was over 100 µM and the TGI [12] was over 100 µM. For the same molecule, the TGI [13] was over 100 µM, the TGI [14] was 32.8 µM and the TGI [15] was over 100 µM. It also gave a TGI [16] of over 100 µM, a TGI [17] of over 100 µM and a TGI [18] of over 100 µM. It also gave a TGI [19] of over 100 µM, a TGI [20] of over 100 µM and a TGI [21] of over 100 µM. For the same molecule, the TGI [22] was over 100 µM, the TGI [23] was over 100 µM and the TGI [24] was over 100 µM. For the same molecule, the TGI [25] was 53.5 µM, the TGI [26] was over 100 µM and the TGI [27] was over 100 µM. The TGI [28] was over 100 µM, the TGI [29] was over 100 µM and the TGI [30] was over 100 µM. For the same molecule, the TGI [31] was over 100 µM, the TGI [32] was over 100 µM and the TGI [33] was over 100 µM. For the same molecule, the TGI [34] was over 100 µM, the TGI [35] was over 100 µM and the TGI [36] was over 100 µM. It also gave a TGI [37] of over 100 µM, a TGI [38] of over 100 µM and a TGI [39] of over 100 µM. For the same molecule, the TGI [40] was over 100 µM, the TGI [41] was over 100 µM and the TGI [42] was over 100 µM. It also gave a TGI [43] of over 100 µM, a TGI [44] of over 100 µM and a TGI [45] of over 100 µM. It also gave a TGI [46] of over 100 µM, a TGI [47] of over 100 µM and a TGI [48] of 88.7 µM. The TGI [49] was 60.5 µM, the TGI [50] was over 100 µM and the TGI [51] was over 100 µM. It also gave a TGI [52] of over 100 µM, a TGI [53] of 85.8 µM and a TGI [54] of over 100 µM. The TGI [55] was over 100 µM, the TGI [56] was over 100 µM and the TGI [57] was over 100 µM.
`O=C1NC(=S)N(c2ccccc2)C1=O` showed a TGI [1] of over 100 µM, a TGI [2] of over 100 µM and a TGI [3] of over 100 µM. The TGI [4] was over 100 µM, the TGI [6] was over 100 µM and the TGI [7] was over 100 µM. The TGI [8] was over 100 µM, the TGI [9] was over 100 µM and the TGI [10] was over 100 µM. The TGI [11] was over 100 µM, the TGI [12] was over 100 µM and the TGI [13] was over 100 µM. It also gave a TGI [58] of over 100 µM, a TGI [14] of over 100 µM and a TGI [15] of over 100 µM. The TGI [16] was over 100 µM, the TGI [17] was over 100 µM and the TGI [18] was over 100 µM. For the same molecule, the TGI [19] was over 100 µM, the TGI [20] was over 100 µM and the TGI [21] was over 100 µM. For the same molecule, the TGI [23] was over 100 µM, the TGI [25] was over 100 µM and the TGI [26] was over 100 µM. It also gave a TGI [27] of over 100 µM, a TGI [28] of over 100 µM and a TGI [29] of over 100 µM. The TGI [30] was over 100 µM, the TGI [31] was over 100 µM and the TGI [32] was over 100 µM. The TGI [34] was over 100 µM, the TGI [35] was over 100 µM and the TGI [36] was over 100 µM. It also gave a TGI [37] of over 100 µM, a TGI [38] of over 100 µM and a TGI [39] of over 100 µM. The TGI [40] was over 100 µM, the TGI [41] was over 100 µM and the TGI [42] was over 100 µM. For the same molecule, the TGI [43] was over 100 µM, the TGI [44] was over 100 µM and the TGI [45] was over 100 µM. For the same molecule, the TGI [46] was over 100 µM, the TGI [47] was over 100 µM and the TGI [48] was over 100 µM. The TGI [49] was over 100 µM, the TGI [50] was over 100 µM and the TGI [51] was over 100 µM. For the same molecule, the TGI [52] was over 100 µM, the TGI [53] was over 100 µM and the TGI [54] was over 100 µM. It also gave a TGI [55] of over 100 µM, a TGI [56] of over 100 µM and a TGI [57] of over 100 µM.
In the case of `COc1ccc2oc(=N)c(C(=O)Nc3ccccn3)cc2c1`, the TGI [1] is reported as over 100 µM, the TGI [2] is reported as over 100 µM and the TGI [3] is reported as over 100 µM. It also gave a TGI [4] of over 100 µM, a TGI [5] of over 100 µM and a TGI [6] of over 100 µM. For the same molecule, the TGI [7] was over 100 µM, the TGI [8] was over 100 µM and the TGI [9] was over 100 µM. For the same molecule, the TGI [10] was over 100 µM, the TGI [11] was over 100 µM and the TGI [12] was over 100 µM. The TGI [13] was over 100 µM, the TGI [58] was over 100 µM and the TGI [14] was over 100 µM. For the same molecule, the TGI [15] was over 100 µM, the TGI [16] was over 100 µM and the TGI [17] was over 100 µM. The TGI [18] was over 100 µM, the TGI [19] was over 100 µM and the TGI [20] was over 100 µM. For the same molecule, the TGI [21] was over 100 µM, the TGI [22] was over 100 µM and the TGI [23] was over 100 µM. The TGI [24] was over 100 µM, the TGI [25] was over 100 µM and the TGI [26] was over 100 µM. The TGI [27] was over 100 µM, the TGI [28] was over 100 µM and the TGI [29] was over 100 µM. It also gave a TGI [30] of over 100 µM, a TGI [32] of over 100 µM and a TGI [33] of over 100 µM. It also gave a TGI [34] of over 100 µM, a TGI [35] of over 100 µM and a TGI [36] of over 100 µM. The TGI [37] was over 100 µM, the TGI [38] was over 100 µM and the TGI [39] was over 100 µM. It also gave a TGI [40] of over 100 µM, a TGI [43] of over 100 µM and a TGI [44] of over 100 µM. The TGI [45] was over 100 µM, the TGI [46] was over 100 µM and the TGI [47] was over 100 µM. For the same molecule, the TGI [48] was over 100 µM, the TGI [49] was over 100 µM and the TGI [50] was over 100 µM. It also gave a TGI [51] of over 100 µM, a TGI [52] of over 100 µM and a TGI [54] of over 100 µM. The TGI [55] was over 100 µM and the TGI [56] was over 100 µM.
